These compounds were tested against T1, human GnRH receptor (Homo sapiens, UniProt P30968) (assay: IP-One HTRF assay (inhibition of GnRH-R activation by buserelin)). Details: IP-One HTRF assay with buserelin (at EC80) stimulation; CHO cells stably expressing human GnRH receptor; tested 20 µM to 1 nM; read-out: Potency IC50.
T1 construct: line established by Prof; Thomas Gudermann; host or cells: CHO cells
T1 sequence (P30968 1-328): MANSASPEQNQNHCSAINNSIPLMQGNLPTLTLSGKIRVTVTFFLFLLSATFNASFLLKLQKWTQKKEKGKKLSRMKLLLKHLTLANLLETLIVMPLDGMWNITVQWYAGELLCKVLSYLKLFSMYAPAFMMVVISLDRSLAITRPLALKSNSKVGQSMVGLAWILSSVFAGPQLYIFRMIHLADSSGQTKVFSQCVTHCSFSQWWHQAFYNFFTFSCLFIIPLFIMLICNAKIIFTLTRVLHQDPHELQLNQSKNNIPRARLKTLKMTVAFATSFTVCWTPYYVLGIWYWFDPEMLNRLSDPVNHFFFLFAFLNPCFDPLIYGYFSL
Assay type: cell-based
Outline: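 CHO cells stably expressing human GnRH-R, pre-incubated 20 min at 22°C with compound (10 concentrations, 20 µM to 1 nM, duplicates), then stimulated 1 h at 37°C with buserelin or LHRH at EC50 or EC80 in pH 7.4 buffer with 50 mM LiCl. IP1 read by HTRF 665/620 nm ratio; IC50 by 4-parameter fit.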

| Compound | IC50 [µM] |
| --- | --- |
| COc1cccc(S(=O)(=O)N2c3ccc(C(=O)NCc4ncccc4Cl)cc3C3(CCC(O)(C(F)(F)F)CC3)C2C2CC2)c1 (stereo not shown) [Example 45, N-[(3-chloropyridin-2-yl)methyl]-2'-cyclopropyl-4-hydroxy-1'-[(3-methoxyphenyl)su Ifonyl]-4-(trifluoromethyl)-1',2'-dihydrospiro[cyclohexane-1,3'-indole]-5'-carboxamide] | 0.756 |
| CS(=O)(=O)c1cccc(NC(=O)c2ccc3c(c2)C2(CCC(O)(C(F)(F)F)CC2)C(C2CC2)N3S(=O)(=O)c2ccc(F)cc2)c1 (stereo not shown) [Example 46, 2'-cyclopropyl-1'-[(4-fluorophenyl)sulfonyl]-4-hydroxy-N-[3-(methylsulfonyl)phenyl]-4-(trifluoromethyl)-1',2'-dihydrospiro[cyclohexane-1,3'-indole]-5'-carboxamide] | 0.54 |
| NS(=O)(=O)c1cccc(NC(=O)c2ccc3c(c2)C2(CCC(O)(C(F)(F)F)CC2)C(C2CC2)N3S(=O)(=O)c2ccc(F)cc2)c1 (stereo not shown) [Example 47, 2'-cyclopropyl-1 [(4-fluorophenyl)sulfonyl]-4-hydroxy-N-(3-sulfamoylphenyl)-4-(trifluoromethyl)-1',2'-dihydrospiro[cyclohexane-1,3'-indole]-5'-carboxamide] | 0.618 |
| O=C(O)c1cccc(S(=O)(=O)N2c3ccc(C(=O)Nc4ccon4)cc3C3(CCC(O)(C(F)(F)F)CC3)C2C2CC2)c1 (stereo not shown) [Example 48, 3-{[2'-cyclopropyl-4-hydroxy-5'-(1,2-oxazol-3-ylcarbamoyl)-4-(trifluoromethyl)spiro[cyclohexane-1,3'-indol]-1'(2'H)-yl]sulfonyl}benzoic acid] | 6.71 |
| O=C(O)c1cccc(S(=O)(=O)N2c3ccc(C(=O)NCc4ncc(C(F)(F)F)cc4F)cc3C3(CCC(O)(C(F)(F)F)CC3)C2C2CC2)c1 (stereo not shown) [Example 49, 3-{[2'-cyclopropyl-5'-({[3-fluoro-5-(trifluoromethyl)pyridin-2-yl]methyl}carbamoyl)-4-hydroxy-4-(trifluoromethyl)spiro[cyclohexane-1,3'-indol]-1'(2'H)-yl]sulfonyl}benzoic acid] | 4.3 |
| O=C(O)c1cccc(S(=O)(=O)N2c3ccc(C(=O)NCc4ncccc4C(F)(F)F)cc3C3(CCC(O)(C(F)(F)F)CC3)C2C2CC2)c1 (stereo not shown) [Example 50, 3-{[2'-cyclopropyl-4-hydroxy-4-(trifluoromethyl)-5'-({[3-(trifluoromethyl)pyridin-2-yl]methyl}carbamoyl)spiro[cyclohexane-1,3'-indol]-1'(2'H)-yl]sulfonyl}benzoic acid] | 3.07 |
| O=C(NC1(c2ccc(Cl)cc2)CC1)c1ccc2c(c1)C1(CCC(O)(C(F)(F)F)CC1)C(C1CC1)N2S(=O)(=O)c1ccc(F)cc1 (stereo not shown) [Example 51, N-[1-(4-chlorophenyl)cyclopropyl]-2'-cyclopropyl-1'-[(4-fluorophenyl)sulfonyl]-4-hydroxy-4-(trifluoromethyl)-1',2'-dihydrospiro[cyclohexane-1,3'-indole]-5'-carboxamide] | 0.551 |
| O=C(Nc1cc[nH]n1)c1ccc2c(c1)C1(CCC(O)(C(F)(F)F)CC1)C(C1CC1)N2S(=O)(=O)c1ccc(F)cc1 (stereo not shown) [Example 52, 2'-cyclopropyl-1'-[(4-fluorophenyl)sulfonyl]-4-hydroxy-N-(1H-pyrazol-3-yl)-4-(trifluoromethyl)-1',2'-dihydrospiro[cyclohexane-1,3'-indole]-5'-carboxamide] | 0.716 |
| O=C(NC1CCc2ccccc21)c1ccc2c(c1)C1(CCC(O)(C(F)(F)F)CC1)C(C1CC1)N2S(=O)(=O)c1ccc(F)cc1 (stereo not shown) [Example 53, 2'-cyclopropyl-N-(2,3-dihydro-1H-inden-1-yl)-1'-[(4-fluorophenyl)sulfonyl]-4-hydroxy-4-(trifluoromethyl)-1',2'-dihydrospiro[cyclohexane-1,3'-indole]-5'-carboxamide] | 0.611 |
| O=C(Nc1cccc(C(F)(F)F)c1)c1ccc2c(c1)C1(CCC(O)(C(F)(F)F)CC1)C(C1CC1)N2S(=O)(=O)c1ccc(F)cc1 (stereo not shown) [Example 54, 2'-cyclopropyl-1 [(4-fluorophenyl)sulfonyl]-4-hydroxy-4-(trifluoromethyl)-N-[3-(trifluoromethyl)phenyl]-1',2'-dihydrospiro[cyclohexane-1,3'-indole]-5'-carboxamide] | 2.32 |
| O=C(Nc1cccc(Cl)c1)c1ccc2c(c1)C1(CCC(O)(C(F)(F)F)CC1)C(C1CC1)N2S(=O)(=O)c1ccc(F)cc1 (stereo not shown) [Example 55, N-(3-chlorophenyl)-2'-cyclopropyl-1'-[(4-fluorophenyl)sulfonyl]-4-hydroxy-4-(trifluoromethyl)-1',2'-dihydrospiro[cyclohexane-1,3'-indole]-5'-carboxamide] | 0.705 |
| O=C(Nc1ccon1)c1ccc2c(c1)C1(CCC(O)(C(F)(F)F)CC1)C(C1CC1)N2S(=O)(=O)c1ccc(F)cc1 (stereo not shown) [Example 56, 2'-cyclopropyl-1' [(4-fluorophenyl)sulfonyl]-4-hydroxy-N-(1,2-oxazol-3-yl)-4-(trifluoromethyl)-1',2'-dihydrospiro[cyclohexane-1,3'-indole]-5'-carboxamide] | 0.286 |
| O=C(Nc1ccon1)c1ccc2c(c1)C1(CCC(O)(C(F)(F)F)CC1)C(C1CC1)N2S(=O)(=O)c1cccc(C(=O)N2CCC2)c1 (stereo not shown) [Example 57, 1'-{[3-(azetidin-1-ylcarbonyl)phenyl]sulfonyl}-2'-cyclopropyl-4-hydroxy-N-(1,2-oxazol-3-yl)-4-(trifluoromethyl)-1',2'-dihydrospiro[cyclohexane-1,3'-indole]-5'-carboxamide] | 1.22 |
| O=C(Nc1cncc(C(F)(F)F)c1)c1ccc2c(c1)C1(CCC(O)(C(F)(F)F)CC1)C(C1CC1)N2S(=O)(=O)c1ccc(F)cc1 (stereo not shown) [Example 58, 2'-cyclopropyl-1'-[(4-fluorophenyl)sulfonyl]-4-hydroxy-4-(trifluoromethyl)-N-[5-(trifluoromethyl)pyridin-3-yl]-1',2'-dihydrospiro[cyclohexane-1,3'-indole]-5'-carboxamide] | 3.12 |
| O=C(NCC1CC1)c1ccc2c(c1)C1(CCC(O)(C(F)(F)F)CC1)C(C1CC1)N2S(=O)(=O)c1ccc(F)cc1 (stereo not shown) [Example 59, 2'-cyclopropyl-N-(cyclopropylmethyl)-1'-[(4-fluorophenyl)sulfonyl]-4-hydroxy-4-(trifluoromethyl)-1',2'-dihydrospiro[cyclohexane-1,3'-indole]-5'-carboxamide] | 0.69 |
| O=C(NCc1ccc(F)cc1Cl)c1ccc2c(c1)C1(CCC(O)(C(F)(F)F)CC1)C(C1CC1)N2S(=O)(=O)c1ccc(F)cc1 (stereo not shown) [Example 60, N-(2-chloro-4-fluorobenzyl)-2'-cyclopropyl-1'-[(4-fluorophenyl)sulfonyl]-4-hydroxy-4-(trifluoromethyl)-1',2'-dihydrospiro[cyclohexane-1,3'-indole]-5'-carboxamide] | 0.432 |
| O=C(NCC1CCCCC1)c1ccc2c(c1)C1(CCC(O)(C(F)(F)F)CC1)C(C1CC1)N2S(=O)(=O)c1ccc(F)cc1 (stereo not shown) [Example 61, N-(cyclohexylmethyl) -2'-cyclopropyl-1'-[(4-fluorophenyl)sulfonyl]-4-hydroxy-4-(trifluoromethyl)-1',2'-dihydrospiro[cyclohexane-1,3'-indole]-5'-carboxamide] | 0.741 |
| O=C(NCc1ccccc1Cl)c1ccc2c(c1)C1(CCC(O)(C(F)(F)F)CC1)C(C1CC1)N2S(=O)(=O)c1ccc(F)cc1 (stereo not shown) [Example 62, N-(2-chlorobenzyl)-2'-cyclopropyl-1'-[(4-fluorophenyl)sulfonyl]-4-hydroxy-4-(trifluoromethyl)-1',2'-dihydrospiro[cyclohexane-1,3'-indole]-5'-carboxamide] | 0.253 |
| O=C(NCc1ncc(C(F)(F)F)cc1F)c1ccc2c(c1)C1(CCC(O)(C(F)(F)F)CC1)C(C1CC1)N2S(=O)(=O)c1cccc(C(=O)N2CCC2)c1 (stereo not shown) [Example 63, 1'-{[3-(azetidin-1-ylcarbonyl)phenyl]sulfonyl}-2'-cyclopropyl-N-{[3-fluoro-5-(trifluoromethyl)pyridin-2-yl]methyl}-4-hydroxy-4-(trifluoromethyl)-1',2'-dihydrospiro[cyclohexane-1,3'-indole]-5'-carboxamide] | 3.21 |
| O=C(NCc1ncc(F)cc1Cl)c1ccc2c(c1)C1(CCC(O)(C(F)(F)F)CC1)C(C1CC1)N2S(=O)(=O)c1ccc(F)cc1 (stereo not shown) [Example 64, N-[(3-chloro-5-fluoropyridin-2-yl)methyl]-2'-cyclopropyl-1'-[(4-fluorophenyl)sulfonyl]-4-hydroxy-4-(trifluoromethyl)-1',2'-dihydrospiro[cyclohexane-1,3'-indole]-5'-carboxamide] | 0.519 |
| O=C(NCc1ncccc1C(F)(F)F)c1ccc2c(c1)C1(CCC(O)(C(F)(F)F)CC1)C(C1CC1)N2S(=O)(=O)c1ccc(F)cc1 (stereo not shown) [Example 65, 2'-cyclopropyl-1'-[(4-fluorophenyl)sulfonyl]-4-hydroxy-4-(trifluoromethyl)-N-{[3-(trifluoromethyl)pyridin-2-yl]methyl}-1',2'-dihydrospiro[cyclohexane-1,3'-indole]-5'-carboxamide] | 0.311 |
| O=C(NCc1ncccc1C(F)(F)F)c1ccc2c(c1)C1(CCC(O)(C(F)(F)F)CC1)C(C1CC1)N2S(=O)(=O)c1cccc(C(=O)N2CCC2)c1 (stereo not shown) [Example 66, 1'-{[3-(azetidin-1-ylcarbonyl)phenyl]sulfonyl}-2'-cyclopropyl-4-hydroxy-4-(trifluoromethyl)-N-{[3-(trifluoromethyl)pyridin-2-yl]methyl}-1',2'-dihydrospiro[cyclohexane-1,3'-indole]-5'-carboxamide] | 2.18 |

— patent EP2881391A1, “Spiroindoline carbocycle derivatives and pharmaceutical compositions thereof” (Bayer Pharma Aktiengesellschaft, priority 2013, dated 2015)
